Results: patent publication US6528275B1, “Substrates and inhibitors of proteolytic enzymes” (Peptide Therapeutics Limited, priority 1996, dated 2003)
Non-standard residues stand in square brackets, D forms with d. Residues, ends and D or L forms follow the SMILES beside them. Tyr(3-NO2) = N[C@@H](Cc1ccc(O)c([N+](=O)[O-])c1)C(=O)O; 2Nal = N[C@@H](Cc1ccc2ccccc2c1)C(=O)O; Hyp = O=C(O)[C@@H]1C[C@@H](O)CN1; 3Pal = N[C@@H](Cc1cccnc1)C(=O)O; Tic = O=C(O)[C@@H]1Cc2ccccc2CN1; hLeu = CC(C)CC[C@H](N)C(=O)O; dNle = CCCC[C@@H](N)C(=O)O; Ac6c = NC1(C(=O)O)CCCCC1; Nle = CCCC[C@H](N)C(=O)O; Ac5c = NC1(C(=O)O)CCCC1; 2Abz = Nc1ccccc1C(=O)O

target: T1, Der pI (Dermatophagoides pteronyssinus, UniProt P08176); experiment: Der pI substrate assay with FRET peptides (fluorescence, Km, kcat/Km); format: biochemical, house dust mite; set-up: key: NS indicates that the peptide was not hydrolysed by Der pI.; NM indicated that the peptide was a substrate for Der pI, but the Km was not measured.; NM^a indicates that the peptide was a substrate for Der pI, and its cleavage was followed by HPLC-MS showing hydrolysis to occur between-Nle-Ser-; conditions: purified Der pI; peptides SEQ ID Nos. 1-76
T1 construct: tissue SmithKline-Beecham, U.K (crude mite extract); host or cells: crude house dust mite extract
T1 sequence (P08176 99-320): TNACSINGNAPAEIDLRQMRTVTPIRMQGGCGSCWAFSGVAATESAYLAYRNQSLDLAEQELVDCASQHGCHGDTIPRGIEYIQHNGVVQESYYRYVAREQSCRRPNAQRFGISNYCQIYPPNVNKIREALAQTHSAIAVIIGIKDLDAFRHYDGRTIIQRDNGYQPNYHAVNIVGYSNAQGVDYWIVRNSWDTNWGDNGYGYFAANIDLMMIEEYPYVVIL
Method: Using the general techniques described above, the following compounds were prepared and assayed as potential substrates against Der pI purified as described above.
Each mixture of 20 compounds in the libraries of the apparatus described herein was screened at a concentration of 1.0 μM per compound in an assay against the cysteinyl protease Der pI.
Plate assays were carried out in 96 well plate format, using 0.1 ug of Der pI per 100 μL assay volume in each well and using 20 μM of the substrate. All assays were performed in Assay Buffer (AB; 50 mM potassium phosphate, pH 8.25 containing 1 mM ethylenediaminetetraacetic acid (EDTA) and 1 mM dithiothreitol (DTT). The Der pI enzyme is pre-activated by addition of DTT and this in incubated at room temperature for 5 min. prior to initiation of the assay. As an example for the screening methodology, each well contains a 5 μL of a 20 μM solution of the test compound in DMSO, 10 μL of a 200 μM aqueous solution of the substrate, 2, and 85 μL of Der pI in AB is added to initiate the reaction. Enzyme activity is monitored by fluorescence using 320 nm for excitation and 420 nm for the emission wavelengths using a Labsystems Fluroskan Ascent machine. Kinetic measurements were carried out using a Hitachi F-4500 Fluorescence Spectrophotometer.

Structure (SMILES) | substrate or not substrate for Der pI (symbols in Measured Km)
CC(C)CC[C@H](NC(=O)[C@H](C)NC(=O)C1(NC(=O)c2ccccc2N)CCCCC1)C(=O)N[C@@H](CO)C(=O)N[C@@H](Cc1ccc(O)c([N+](=O)[O-])c1)C(=O)N[C@@H](CC(=O)O)C(N)=O [Abz-ACH-Ala-hLeu-Ser-Tyr(NO2)-Asp-NH2] (H-[2Abz][Ac6c]A[hLeu]S[Tyr(3-NO2)]D-NH2) | NS
CCCC[C@H](NC(=O)[C@H](C)NC(=O)c1ccccc1N)C(=O)N[C@@H](CO)C(=O)N[C@@H](Cc1ccc(O)c([N+](=O)[O-])c1)C(=O)N[C@@H](CC(=O)O)C(N)=O [Abz-Ala-Nle-Ser-Tyr(NO2)-Asp-NH2] (H-[2Abz]A[Nle]S[Tyr(3-NO2)]D-NH2) | NM
CC(C)CC[C@H](NC(=O)[C@H](C)NC(=O)[C@H](NC(=O)c1ccccc1N)C(C)C)C(=O)N[C@@H](CO)C(=O)N[C@@H](Cc1ccc(O)c([N+](=O)[O-])c1)C(=O)N[C@@H](CC(=O)O)C(N)=O [Abz-DVal-Ala-hLeu-Ser-Tyr(NO2)-Asp-NH2] (H-[2Abz][dV]A[hLeu]S[Tyr(3-NO2)]D-NH2) | NS
CCCC[C@H](NC(=O)[C@H](C)NC(=O)[C@@H](NC(=O)[C@@H]1C[C@@H](O)CN1C(=O)c1ccccc1N)C(C)C)C(=O)N[C@@H](CO)C(=O)N[C@@H](Cc1ccc(O)c([N+](=O)[O-])c1)C(=O)N[C@@H](CC(=O)O)C(N)=O [Abz-Hyp-Val-Ala-Nle-Ser-Tyr(NO2)-Asp-NH2] (H-[2Abz][Hyp]VA[Nle]S[Tyr(3-NO2)]D-NH2) | NS
CCCC[C@H](NC(=O)[C@H](C)NC(=O)[C@@H](NC(=O)[C@H](CC(C)C)NC(=O)c1ccccc1N)C(C)C)C(=O)N[C@@H](CO)C(=O)N[C@@H](Cc1ccc(O)c([N+](=O)[O-])c1)C(=O)N[C@@H](CC(=O)O)C(N)=O [Abz-Leu-Val-Ala-Nle-Ser-Tyr(NO2)-Asp-NH2] (H-[2Abz]LVA[Nle]S[Tyr(3-NO2)]D-NH2) | NM
CCCC[C@H](NC(=O)c1ccccc1N)C(=O)N[C@@H](CO)C(=O)N[C@@H](Cc1ccc(O)c([N+](=O)[O-])c1)C(=O)N[C@@H](CC(=O)O)C(N)=O [Abz-Nle-Ser-Tyr(NO2)-Asp-NH2] (H-[2Abz][Nle]S[Tyr(3-NO2)]D-NH2) | NS
CCCC[C@H](NC(=O)[C@H](C)NC(=O)[C@@H](NC(=O)[C@H](Cc1ccccc1)NC(=O)c1ccccc1N)C(C)C)C(=O)N[C@@H](CO)C(=O)N[C@@H](Cc1ccc(O)c([N+](=O)[O-])c1)C(=O)N[C@@H](CC(=O)O)C(N)=O [Abz-Phe-Val-Ala-Nle-Ser-Tyr(NO2)-Asp-NH2] (H-[2Abz]FVA[Nle]S[Tyr(3-NO2)]D-NH2) | NM
CC(C)CC[C@H](NC(=O)[C@H](C)NC(=O)[C@@H]1Cc2ccccc2CN1C(=O)c1ccccc1N)C(=O)N[C@@H](CO)C(=O)N[C@@H](Cc1ccc(O)c([N+](=O)[O-])c1)C(=O)N[C@@H](CC(=O)O)C(N)=O [Abz-Tic-Ala-hLeu-Ser-Tyr(NO2)-Asp-NH2] (H-[2Abz][Tic]A[hLeu]S[Tyr(3-NO2)]D-NH2) | NS
CCCC[C@H](NC(=O)[C@H](C)NC(=O)[C@@H](NC(=O)[C@H](Cc1ccc(O)cc1)NC(=O)c1ccccc1N)C(C)C)C(=O)N[C@@H](CO)C(=O)N[C@@H](Cc1ccc(O)c([N+](=O)[O-])c1)C(=O)N[C@@H](CC(=O)O)C(N)=O [Abz-Tyr-Val-Ala-Nle-Ser-Tyr(NO2)-Asp-NH2] (H-[2Abz]YVA[Nle]S[Tyr(3-NO2)]D-NH2) | NM
CC(C)CC[C@H](NC(=O)[C@@H](CCC(N)=O)NC(=O)[C@@H](NC(=O)c1ccccc1N)C(C)C)C(=O)N[C@@H](CO)C(=O)N[C@@H](Cc1ccc(O)c([N+](=O)[O-])c1)C(=O)N[C@@H](CC(=O)O)C(N)=O [Abz-Va1-DGln-hLeu-Ser-Tyr(NO2)-Asp-NH2] (H-[2Abz]V[dQ][hLeu]S[Tyr(3-NO2)]D-NH2) | NS
CC(C)CC[C@H](NC(=O)[C@H](Cc1ccc2ccccc2c1)NC(=O)[C@@H](NC(=O)c1ccccc1N)C(C)C)C(=O)N[C@@H](CO)C(=O)N[C@@H](Cc1ccc(O)c([N+](=O)[O-])c1)C(=O)N[C@@H](CC(=O)O)C(N)=O [Abz-Val-2Nal-hLeu-Ser-Tyr(NO2)-Asp-NH2] (H-[2Abz]V[2Nal][hLeu]S[Tyr(3-NO2)]D-NH2) | NS
CC(C)CC[C@H](NC(=O)[C@H](Cc1cccnc1)NC(=O)[C@@H](NC(=O)c1ccccc1N)C(C)C)C(=O)N[C@@H](CO)C(=O)N[C@@H](Cc1ccc(O)c([N+](=O)[O-])c1)C(=O)N[C@@H](CC(=O)O)C(N)=O [Abz-Val-3pyr-hLeu-Ser-Tyr(NO2)-Asp-NH2] (H-[2Abz]V[3Pal][hLeu]S[Tyr(3-NO2)]D-NH2) | NS
CC(C)CC[C@H](NC(=O)C1(NC(=O)[C@@H](NC(=O)c2ccccc2N)C(C)C)CCCCC1)C(=O)N[C@@H](CO)C(=O)N[C@@H](Cc1ccc(O)c([N+](=O)[O-])c1)C(=O)N[C@@H](CC(=O)O)C(N)=O [Abz-Val-ACH-hLeu-Ser-Tyr(NO2)-Asp-NH2] (H-[2Abz]V[Ac6c][hLeu]S[Tyr(3-NO2)]D-NH2) | NS
CC(C)CC[C@H](NC(=O)C1(NC(=O)[C@@H](NC(=O)c2ccccc2N)C(C)C)CCCC1)C(=O)N[C@@H](CO)C(=O)N[C@@H](Cc1ccc(O)c([N+](=O)[O-])c1)C(=O)N[C@@H](CC(=O)O)C(N)=O [Abz-Val-ACP-hLeu-Ser-Tyr(NO2)-Asp-NH2] (H-[2Abz]V[Ac5c][hLeu]S[Tyr(3-NO2)]D-NH2) | NS
CC(C)[C@H](NC(=O)c1ccccc1N)C(=O)N[C@@H](C)C(=O)NC1(C(=O)N[C@@H](CO)C(=O)N[C@@H](Cc2ccc(O)c([N+](=O)[O-])c2)C(=O)N[C@@H](CC(=O)O)C(N)=O)CCCCC1 [Abz-Val-Ala-ACH-Ser-Tyr(NO2)-Asp-NH2] (H-[2Abz]VA[Ac6c]S[Tyr(3-NO2)]D-NH2) | NS
CC(C)[C@H](NC(=O)c1ccccc1N)C(=O)N[C@@H](C)C(=O)NC1(C(=O)N[C@@H](CO)C(=O)N[C@@H](Cc2ccc(O)c([N+](=O)[O-])c2)C(=O)N[C@@H](CC(=O)O)C(N)=O)CCCC1 [Abz-Val-Ala-ACP-Ser-Tyr(NO2)-Asp-NH2] (H-[2Abz]VA[Ac5c]S[Tyr(3-NO2)]D-NH2) | NS
CCCC[C@@H](NC(=O)[C@H](C)NC(=O)[C@@H](NC(=O)c1ccccc1N)C(C)C)C(=O)N[C@@H](CO)C(=O)N[C@@H](Cc1ccc(O)c([N+](=O)[O-])c1)C(=O)N[C@@H](CC(=O)O)C(N)=O [Abz-Val-Ala-DNle-Ser-Tyr(NO2)-Asp-NH2] (H-[2Abz]VA[dNle]S[Tyr(3-NO2)]D-NH2) | NS
CC(C)[C@H](NC(=O)c1ccccc1N)C(=O)N[C@@H](C)C(=O)N1C[C@H](O)C[C@H]1C(=O)N[C@@H](CO)C(=O)N[C@@H](Cc1ccc(O)c([N+](=O)[O-])c1)C(=O)N[C@@H](CC(=O)O)C(N)=O [Abz-Val-Ala-Hyp-Ser-Tyr(NO2)-Asp-NH2] (H-[2Abz]VA[Hyp]S[Tyr(3-NO2)]D-NH2) | NS
CCCC[C@H](NC(=O)[C@H](C)NC(=O)[C@@H](NC(=O)c1ccccc1N)C(C)C)C(=O)N[C@@H](CO)C(=O)N[C@@H](C)C(=O)N[C@@H](CC(=O)O)C(N)=O [Abz-Val-Ala-Nle-Ser-Ala-Asp-NH2] (H-[2Abz]VA[Nle]SAD-NH2) | NM
CCCC[C@H](NC(=O)[C@H](C)NC(=O)[C@@H](NC(=O)c1ccccc1N)C(C)C)C(=O)N[C@@H](CO)C(=O)N[C@@H](CCCCN)C(=O)N[C@@H](CC(=O)O)C(N)=O [Abz-Val-Ala-Nle-Ser-Lys-Asp-NH2] (H-[2Abz]VA[Nle]SKD-NH2) | NM
CCCC[C@H](NC(=O)[C@H](C)NC(=O)[C@@H](NC(=O)c1ccccc1N)C(C)C)C(=O)N[C@@H](CO)C(N)=O [Abz-Val-Ala-Nle-Ser-NH2] (H-[2Abz]VA[Nle]S-NH2) | NM
CCCC[C@H](NC(=O)[C@H](C)NC(=O)[C@@H](NC(=O)c1ccccc1N)C(C)C)C(=O)N[C@@H](CO)C(=O)N[C@@H](Cc1ccccc1)C(=O)N[C@@H](CC(=O)O)C(N)=O [Abz-Val-Ala-Nle-Ser-Phe-Asp-NH2] (H-[2Abz]VA[Nle]SFD-NH2) | NM
